These results are taken from patent publication US9815846B2 (Merck Sharp & Dohme Corp., priority 2014, dated 2017).

human TrkA receptor, sequence (P04629 33-796): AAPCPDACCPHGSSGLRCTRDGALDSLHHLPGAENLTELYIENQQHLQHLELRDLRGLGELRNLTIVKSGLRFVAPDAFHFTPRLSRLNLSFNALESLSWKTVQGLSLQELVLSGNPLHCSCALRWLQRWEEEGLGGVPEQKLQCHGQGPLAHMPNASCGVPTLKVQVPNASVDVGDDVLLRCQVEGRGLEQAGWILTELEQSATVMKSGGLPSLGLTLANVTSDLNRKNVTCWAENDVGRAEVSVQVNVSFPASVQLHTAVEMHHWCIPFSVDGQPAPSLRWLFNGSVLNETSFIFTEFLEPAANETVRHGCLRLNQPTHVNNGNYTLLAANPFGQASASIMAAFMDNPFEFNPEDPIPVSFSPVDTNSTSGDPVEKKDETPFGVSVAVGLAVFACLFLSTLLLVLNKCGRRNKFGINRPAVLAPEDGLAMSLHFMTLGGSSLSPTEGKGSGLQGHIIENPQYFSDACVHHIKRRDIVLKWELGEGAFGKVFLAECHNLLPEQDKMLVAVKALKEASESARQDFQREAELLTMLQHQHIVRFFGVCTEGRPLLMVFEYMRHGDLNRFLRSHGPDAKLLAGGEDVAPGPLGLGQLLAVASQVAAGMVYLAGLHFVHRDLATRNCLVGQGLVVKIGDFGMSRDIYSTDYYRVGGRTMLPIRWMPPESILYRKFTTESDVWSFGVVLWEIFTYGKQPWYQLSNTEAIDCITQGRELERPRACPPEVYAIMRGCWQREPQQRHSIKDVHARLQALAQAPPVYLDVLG

This assay has as its target human TrkA receptor (Homo sapiens (Human), UniProt P04629). Description: DiscoverX PathHunter TrkA functional assay (NGF-stimulated U2OS cells). In kind it is cell-based. The settings on record: U2OS cells expressing human TrkA-PK, Shc1-EA and p75NTR; compound 1 h, then NGF at ~80% of maximal response for 3 h; luminescence.
Description: TrkA functional activity was measured using a DiscoverX PathHunter assay. In this assay, U2OS cells express the human TrkA receptor as a fusion with the weakly complementing fragment of B-galactosidase, which DiscoverX calls “Prolink (PK)”; additionally, Shcl is fused with a larger fragment, which is called “Enzyme Acceptor (EA)”. Activation of the TrkA receptor, upon NGF addition, results in the kinase domain being phosphorylated, resulting in subsequent recruitment of Shcl-EA protein. That recruitment results in an active B-galactosidase enzyme that is detected by addition of a chemiluminescent substrate. The human p75^NTR protein was also expressed as a co-receptor for NGF.
All reagents were purchased from DiscoverX, except for the receptor agonists (NGF, BDNF, NT3) which were purchased from Peprotech. Cells were expanded and frozen into cryovials, and stored in the vapor phase of liquid nitrogen, and thawed immediately before use. Thawed cells were added to a 384-well plate at 7500 cells/well, and allowed to incubate overnight. Compound at various concentrations was added the following morning and allowed to incubate on cells for 1 h. Then, NGF was added at a concentration sufficient to elicit ˜80% of a maximal response and allowed to incubate for 3 h at ambient temperature. DiscoverX PathHunter detection reagent was then added and the plate was further incubated for 1 h in the dark. The plate was then read via luminescence on the Perkin Elmer Envision.
Regarding `Cn1ccc(-c2cc(C(=O)Nc3cnc(CNC(=O)CN4CCOC4=O)nc3-c3ccccc3)c(F)cc2C(F)(F)F)n1` [Example 70, 2-fluoro-5-(1-methyl-1H-pyrazol-3-yl)-N-(2-((2-(2-oxooxazolidin-3-yl)acetamido)methyl)-4-phenylpyrimidin-5-yl)-4-(trifluoromethyl)benzamide], the half-maximal inhibitory concentration (IC50) came out at 0.53 nM.
The same measure for `C[C@@H](O)C(=O)NCc1cnc(NC(=O)c2cc(-c3ccn(C)n3)c(C(F)(F)F)cc2F)c(-c2ccccc2)n1` [Example 71, (R)-2-fluoro-N-(5-((2-hydroxypropanamido)methyl)-3-phenylpyrazin-2-yl)-5-(1-methyl-1H-pyrazol-3-yl)-4-(trifluoromethyl)benzamide]: 3.6 nM.
In the case of `C[C@H](O)C(=O)N(C)Cc1ccc(NC(=O)c2cc(-c3ccn(C)n3)c(C(F)(F)F)cc2F)c(-c2ccccc2)n1` [Example 72, (S)-2-fluoro-N-(6-((2-hydroxy-N-methylpropanamido)methyl)-2-phenylpyridin-3-yl)-5-(1-methyl-1H-pyrazol-3-yl)-4-(trifluoromethyl)benzamide] it was 0.57 nM; in that of `C[C@@H](N)C(=O)NCc1ncc(NC(=O)c2cc(-c3ccn(C)n3)c(C(F)(F)F)cc2F)c(-c2ccccc2)n1` [Example 73, (R)-N-(2-((2-aminopropanamido)methyl)-4-phenylpyrimidin-5-yl)-2-fluoro-5-(1-methyl-1H-pyrazol-3-yl)-4-(trifluoromethyl)benzamide], 1 nM.
In the case of `Cn1ccc(-c2cc(C(=O)Nc3cnc(CNC(=O)[C@@H]4COCCN4)nc3-c3ccccc3)c(F)cc2C(F)(F)F)n1` [Example 74, (S)-N-((5-(2-fluoro-5-(1-methyl-1H-pyrazol-3-yl)-4-(trifluoromethyl)benzamido)-4-phenylpyrimidin-2-yl)methyl)morpholine-3-carboxamide] it was 2 nM; in that of `Cn1ccc(-c2cc(C(=O)Nc3cnc(CNS(C)(=O)=O)nc3-c3ccccc3)ccc2C(F)(F)F)n1` [Example 75, 3-(1-methyl-1H-pyrazol-3-yl)-N-(2-(methylsulfonamidomethyl)-4-phenylpyrimidin-5-yl)-4-(trifluoromethyl)benzamide], 12 nM.
In the case of `Cn1ccc(-c2cc(C(=O)Nc3cnc(CNC(N)=O)nc3-c3ccccc3)c(F)cc2C(F)(F)F)n1` [Example 76, 2-Fluoro-5-(1-methyl-1H-pyrazol-3-yl)-N-(4-phenyl-2-(ureidomethyl)pyrimidin-5-yl)-4-(trifluoromethyl)benzamide], the IC50 turned out to be 0.84 nM.
`Cn1ccc(-c2cc(C(=O)Nc3cnc(CN4CCNC4=O)nc3-c3ccccc3)c(F)cc2C(F)(F)F)n1` [Example 77, 2-fluoro-5-(1-methyl-1H-pyrazol-3-yl)-N-(2-((2-oxoimidazolidin-1-yl)methyl)-4-phenylpyrimidin-5-yl)-4-(trifluoromethyl)benzamide] displayed an IC50 of 1 nM.
As for `CN(Cc1ccc(NC(=O)c2cc(-c3ccn(C)n3)c(C(F)(F)F)cc2F)c(-c2ccccc2)n1)C(N)=O` [Example 78, 2-fluoro-5-(1-methyl-1H-pyrazol-3-yl)-N-(6-((1-methylureido)methyl)-2-phenylpyridin-3-yl)-4-(trifluoromethyl)benzamide], inhibition was half-maximal at 1.1 nM (IC50).
The same measure for `CN(Cc1ccc(NC(=O)c2cc(-c3ccn(C)n3)c(C(F)(F)F)cc2F)c(-c2ccccc2)n1)C(=O)NCCO` [Example 79, 2-fluoro-N-(6-((3-(2-hydroxyethyl)-1-methylureido)methyl)-2-phenylpyridin-3-yl)-5-(1-methyl-1H-pyrazol-3-yl)-4-(trifluoromethyl)benzamide]: 1.1 nM.
`Cn1ccc(-c2cc(C(=O)Nc3cnc(COC(N)=O)nc3-c3ccccc3)c(F)cc2C(F)(F)F)n1` [Example 80, (5-(2-Fluoro-5-(1-methyl-1H-pyrazol-3-yl)-4-(trifluoromethyl)benzamido)-4-phenylpyrimidin-2-yl)methyl carbamate]: the IC50 stood at 0.49 nM.
`Cn1ccc(-c2cc(C(=O)Nc3cc(C(=O)O)cnc3-c3ccccc3)c(F)cc2C(F)(F)F)n1` [Example 81, 5-(2-Fluoro-5-(1-methyl-1H-pyrazol-3-yl)-4-(trifluoromethyl)benzamido)-6-phenylnicotinic acid] gave an IC50 of 14 nM.
In the case of `CN(C)C(=O)c1cnc(-c2ccccc2)c(NC(=O)c2cc(-c3ccn(C)n3)c(C(F)(F)F)cc2F)c1` [Example 82, 5-(2-Fluoro-5-(1-methyl-1H-pyrazol-3-yl)-4-(trifluoromethyl)benzamido)-N,N-dimethyl-6-phenylnicotinamide] it was 11 nM.
In the case of `CNC(=O)c1cnc(-c2ccccc2)c(NC(=O)c2cc(-c3ccn(C)n3)c(C(F)(F)F)cc2F)c1` [Example 83, 5-(2-fluoro-5-(1-methyl-1H-pyrazol-3-yl)-4-(trifluoromethyl)benzamido)-N-methyl-6-phenylnicotinamide] it was 1.1 nM; in that of `C[C@H](O)CNC(=O)c1cnc(-c2ccccc2)c(NC(=O)c2cc(-c3ccn(C)n3)c(C(F)(F)F)cc2F)c1` [Example 84, (S)-5-(2-fluoro-5-(1-methyl-1H-pyrazol-3-yl)-4-(trifluoromethyl)benzamido)-N-(2-hydroxypropyl)-6-phenylnicotinamide], 1.2 nM.
Turning to `C[C@@H](CO)NC(=O)c1cnc(-c2ccccc2)c(NC(=O)c2cc(-c3ccn(C)n3)c(C(F)(F)F)cc2F)c1` [Example 85, (S)-5-(2-fluoro-5-(1-methyl-1H-pyrazol-3-yl)-4-(trifluoromethyl)benzamido)-N-(1-hydroxypropan-2-yl)-6-phenylnicotinamide], the IC50 stood at 0.58 nM.
Take `Cc1cnn(-c2ccc(C(N)=O)cc2NC(=O)c2ccc(C(F)(F)F)c(-c3ccn(C)n3)c2)c1` [Example 86, N-(5-carbamoyl-2-(4-methyl-1H-pyrazol-1-yl)phenyl)-3-(1-methyl-1H-pyrazol-3-yl)-4-(trifluoromethyl)benzamide]: the 50% inhibitory concentration (IC50) stood at 19 nM.
In the case of `Cn1ccc(-c2cc(C(=O)Nc3cc(C(N)=O)c(N)nc3-c3ccccc3)ccc2C(F)(F)F)n1` [Example 87, 2-amino-5-(3-(1-methyl-1H-pyrazol-3-yl)-4-(trifluoromethyl)benzamido)-6-phenylnicotinamide] it was 8.5 nM; in that of `O=C(Nc1cnc(C(=O)N2CCOCC2)nc1-c1ccccc1)c1ccc(C(F)(F)F)c(-c2cc[nH]n2)c1` [Example 88, N-(2-(morpholine-4-carbonyl)-4-phenylpyrimidin-5-yl)-3-(1H-pyrazol-3-yl)-4-(trifluoromethyl)benzamide], 1200 nM; in that of `Cn1ccc(-c2cc(C(=O)Nc3cc(C(N)=O)cnc3-c3ccccc3)ccc2C(F)(F)F)n1` [Example 89, 5-(3-(1-methyl-1H-pyrazol-3-yl)-4-(trifluoromethyl)benzamido)-6-phenylnicotinamide], 1.5 nM.
The same measure for `CN1CC(NC(=O)c2cnc(-c3ccccc3)c(NC(=O)c3cc(-c4cc[nH]n4)c(C(F)(F)F)cc3F)c2)C1` [Example 90, 5-(2-fluoro-5-(1H-pyrazol-3-yl)-4-(trifluoromethyl)benzamido)-N-(1-methylazetidin-3-yl)-6-phenylnicotinamide]: 80 nM.
The same measure for `NC(=O)c1cnc(-c2ccccc2)c(NC(=O)c2cc(-c3ncccn3)c(C(F)(F)F)cc2F)c1` [Example 91, 5-(2-fluoro-5-(pyrimidin-2-yl)-4-(trifluoromethyl)benzamido)-6-phenylnicotinamide]: 11 nM.
For the compound `O=C(NCc1cccnc1)c1cnc(-c2ccccc2)c(NC(=O)c2cc(-c3ncccn3)c(C(F)(F)F)cc2F)c1` [Example 92, 5-(2-fluoro-5-(pyrimidin-2-yl)-4-(trifluoromethyl)benzamido)-6-phenyl-N-(pyridin-3-ylmethyl)nicotinamide], the half-maximal inhibitory concentration (IC50) was determined as 2.2 nM.
The compound `NC(=O)c1cnc(-c2ccccc2)c(NC(=O)c2cc(-c3cc[nH]n3)c(C(F)(F)F)cc2F)c1` [Example 93, 5-(2-fluoro-5-(1H-pyrazol-3-yl)-4-(trifluoromethyl)benzamido)-6-phenylnicotinamide] came in with an IC50 of 5.7 nM.
On to `Cn1ccc(-c2cc(C(=O)Nc3cc(C(N)=O)nnc3-c3ccccc3)c(F)cc2C(F)(F)F)n1` [Example 94, 5-(2-fluoro-5-(1-methyl-1H-pyrazol-3-yl)-4-(trifluoromethyl)benzamido)-6-phenylpyridazine-3-carboxamide], for which the IC50 is 9.3 nM.
The same measure for `CN1CC(=O)N(Cc2ncc(NC(=O)c3cc(-c4ccn(C)n4)c(C(F)(F)F)cc3F)c(-c3ccccc3)n2)C1=O` [Example 95, 2-Fluoro-5-(1-methyl-1H-pyrazol-3-yl)-N-(2-((3-methyl-2,5-dioxoimidazolidin-1-yl)methyl)-4-phenylpyrimidin-5-yl)-4-(trifluoromethyl)benzamide]: 0.11 nM; for `Cn1ccc(-c2cc(C(=O)Nc3cnc(CN4C(=O)CNC4=O)nc3-c3ccccc3)c(F)cc2C(F)(F)F)n1` [Example 96, N-(2-((2,5-dioxoimidazolidin-1-yl)methyl)-4-phenylpyrimidin-5-yl)-2-fluoro-5-(1-methyl-1H-pyrazol-3-yl)-4-(trifluoromethyl)benzamide]: 0.083 nM.
In the case of `Cn1ccc(-c2cc(C(=O)Nc3cnc(CN4C(=O)COC4=O)nc3-c3ccccc3)c(F)cc2C(F)(F)F)n1` [Example 97, N-(2-((2,4-dioxooxazolidin-3-yl)methyl)-4-phenylpyrimidin-5-yl)-2-fluoro-5-(1-methyl-1H-pyrazol-3-yl)-4-(trifluoromethyl)benzamide] it was 0.25 nM; in that of `Cn1ccc(-c2cc(C(=O)Nc3ccc(CN4C(=O)CNC4=O)nc3-c3ccccc3)c(F)cc2C(F)(F)F)n1` [Example 98, N-(6-((2,5-dioxoimidazolidin-1-yl)methyl)-2-phenylpyridin-3-yl)-2-fluoro-5-(1-methyl-1H-pyrazol-3-yl)-4-(trifluoromethyl)benzamide], 0.22 nM; in that of `Cn1ccc(-c2cc(C(=O)Nc3cnc(CC(N)=O)nc3-c3ccccc3)c(F)cc2C(F)(F)F)n1` [Example 99, N-(2-(2-Amino-2-oxoethyl)-4-phenylpyrimidin-5-yl)-2-fluoro-5-(1-methyl-1H-pyrazol-3-yl)-4-(trifluoromethyl)benzamide], 0.59 nM.
